Laboratory results taken from ChEMBL document CHEMBL1150471, “Tritylated oncolytics as prodrugs” (Bioorg Med Chem Lett, 1995).
Values after ≈ are worked out from the molar mass of the structure shown. Active and inactive are the calls of the source. The rule behind the calls is not given here.

What was measured:
CCRF-CEM = test: In vitro cytotoxicity against human leukemia cell line CCRF-CEM; format: functional, cell-based
Homo sapiens [1] = test: In vivo inhibition against human colon (HC-1) xenograft at a dose of 20 mg/kg; format: functional
Homo sapiens [2] = test: In vivo inhibition against human colon (HC-1) xenograft at a dose of 37.5 mg/kg; format: functional
Homo sapiens [3] = test: In vivo inhibition against human colon (HC-1) xenograft at a dose of 50 mg/kg; format: functional
Homo sapiens [4] = test: In vivo inhibition against human colon (HC-1) xenograft at a dose of 75 mg/kg; format: functional
[5] = Half life at pH 5.4; no dissociation up to day 33; format: ADME; settings: buffer
[6] = Half life at pH 6.4; no dissociation up to day 33; format: ADME; settings: buffer
[7] = Half life at pH 7.4; no dissociation up to day 33; format: ADME; settings: buffer
Homo sapiens [8] = test: Effective dose for the dose dependent inhibition of tumor growth against human colon (HC-1) xenograft in mice; Inactive; format: functional, organism-based
Homo sapiens [9] = test: In vivo tumor inhibition against human colon (HC-1) xenograft after i.p. administration to C3H nude mice on day 1; format: functional; parameters: concentration or dose not given beside the values
Homo sapiens [10] = test: In vivo tumor inhibition against human colon (HC-1) xenograft after i.p. administration to C3H nude mice on days 10; format: functional; parameters: concentration or dose not given beside the values
Homo sapiens [11] = test: In vivo tumor inhibition against human colon (HC-1) xenograft after i.p. administration to C3H nude mice on days 4; format: functional; parameters: concentration or dose not given beside the values
Homo sapiens [12] = test: In vivo tumor inhibition against human colon (HC-1) xenograft after i.p. administration to C3H nude mice on days 7; format: functional; parameters: concentration or dose not given beside the values
[13] = Half life at pH 5.4; format: ADME; settings: buffer
[14] = Half life at pH 6.4; format: ADME; settings: buffer
[15] = Half life at pH 7.4; format: ADME; settings: buffer
Homo sapiens [16] = test: Effective dose for the dose dependent inhibition of tumor growth against human colon (HC-1) xenograft in mice; format: functional

T1/2 [5]	T1/2 [6]	T1/2 [7]	half-life [13] [h]	half-life [14] [h]	half-life [15] [h]	SMILES	IC50 (CCRF-CEM) [µg/mL]	inhibition in vivo at 20 mg/kg (Homo sapiens [1]) [%]	inhibition in vivo at 37.5 mg/kg (Homo sapiens [2]) [%]	inhibition in vivo at 50 mg/kg (Homo sapiens [3]) [%]	inhibition in vivo at 75 mg/kg (Homo sapiens [4]) [%]	ED50 (Homo sapiens [8])	Inhibition (Homo sapiens [9]) [%]	Inhibition (Homo sapiens [10]) [%]	Inhibition (Homo sapiens [11]) [%]	Inhibition (Homo sapiens [12]) [%]	ED50 (Homo sapiens [16]) [mg/kg]
–	–	–	–	–	–	Nc1nc(N)c2ncn([C@@H]3O[C@H](CO)[C@@H](O)C3(F)F)c2n1	0.024 (≈ 0.0794 µM)	> 95	> 95	> 95	> 95	–	–	–	–	–	–
no dissociation up to day 33	no dissociation up to day 33	no dissociation up to day 33	–	–	–	CC(C)NC(=O)c1ccc(C(Nc2nc(N)nc3c2ncn3[C@@H]2O[C@H](CO)[C@@H](O)C2(F)F)(c2ccccc2)c2ccccc2)cc1	1.7 (≈ 2.7 µM)	–	–	–	–	inactive	>95	>95	>95	>95	–
–	–	–	2.35	23.3	133	COc1ccc(C(Nc2nc(N)nc3c2ncn3[C@@H]2O[C@H](CO)[C@@H](O)C2(F)F)(c2ccc(OC)cc2)c2cccc(C(=O)NC(C)C)c2)cc1	0.084 (≈ 0.122 µM)	–	–	–	–	–	–	–	–	–	–
–	–	–	16.7	547	800	COc1ccc(C(Nc2nc(N)nc3c2ncn3[C@@H]2O[C@H](CO)[C@@H](O)C2(F)F)(c2ccccc2)c2ccc(C(=O)NC(C)C)cc2)cc1 (stereo not given in full)	0.1 (≈ 0.152 µM)	–	–	–	–	–	>95	>95	>95	>95	–
–	–	–	–	–	–	COc1ccc(C(Nc2nc(N)nc3c2ncn3[C@@H]2O[C@H](CO)[C@@H](O)C2(F)F)(c2ccc(C)cc2)c2ccc(C(=O)NC(C)C)cc2)cc1 (stereo not given in full)	0.1 (≈ 0.148 µM)	–	–	–	–	–	>95	>95	>95	>95	–
–	–	–	3.71	14.8	146	COc1ccc(C(Nc2nc(N)nc3c2ncn3[C@@H]2O[C@H](CO)[C@@H](O)C2(F)F)(c2ccc(OC)cc2)c2ccc(C(=O)NC(C)C)cc2)cc1	0.078 (≈ 0.113 µM)	–	–	–	–	–	>95	>95	>95	>95	–
–	–	–	–	–	–	Cc1ccc(C(Nc2nc(N)nc3c2ncn3[C@@H]2O[C@H](CO)[C@@H](O)C2(F)F)(c2ccccc2)c2ccc(C(=O)NC(C)C)cc2)cc1 (stereo not given in full)	0.8 (≈ 1.24 µM)	–	–	–	–	–	>95	>95	>95	>95	30
